Measurements published in patent publication US6706663B2, “Herbicidal 3-heterocyclic substituted benzisothiazole and benzisoxazole compounds” (Wyeth, priority 2000, dated 2004).

Legend:
[1] = system: CYPSE (Cyperus serotinus); experiment: Flooded paddy, postemergence weed control; assay type: in vivo, Rottb.; conditions: postemergence weeds, rated 3-4 weeks after treatment
In short: (§1)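 Herbicidal effect was judged visually against a control on a 0-9 scale covering stand, vigor, malformation, size and chlorosis, three to four weeks after compound was applied into paddy flood water at about 0.0320 to 0.2500 kg/ha.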

[2] = system: GLXMAW (Soybean, Williams); experiment: Preemergence herbicidal evaluation; assay type: in vivo, Glycine max, (L.) Merr. cv Williams; conditions: preemergence, rated 4-5 weeks after treatment
[3] = system: CHEAL (Chenopodium album); experiment: Postemergence herbicidal evaluation; assay type: in vivo, L.
In short: (§2)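 Visual 0–9 injury scores versus control plants, covering stand, vigour, malformation, size, chlorosis and general appearance, taken four to five weeks post-spray and averaged over replicate tests. Plants were sprayed at roughly two weeks old and held on greenhouse benches.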

[4] = system: AMBEL (Ambrosia artemisifolia); experiment: Postemergence herbicidal evaluation; assay type: in vivo, L.
In short: as §2

[5] = system: CASOB (Cassia obtusifolia); experiment: Postemergence herbicidal evaluation; assay type: in vivo, L.
In short: as §2

[6] = system: TRZAWR (Wheat, Winter, cv Riband); experiment: Preemergence herbicidal evaluation; assay type: in vivo, Triticum aestivum; conditions: preemergence, rated 4-5 weeks after treatment
In short: (§3)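 Preemergence soil spray, aq. acetone; greenhouse; visual 0–9 score vs control at 4–5 wk.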

[7] = system: GALAP (Galium aparine); experiment: Preemergence herbicidal evaluation; assay type: in vivo; conditions: preemergence, rated 4-5 weeks after treatment
In short: as §3

[8] = system: ZEAMX (Corn, Field); experiment: Preemergence herbicidal evaluation; assay type: in vivo, Zea mays, L.; conditions: preemergence, rated 4-5 weeks after treatment
[9] = system: CYPIR (Cyperus iria); experiment: Flooded paddy, postemergence weed control; assay type: in vivo; conditions: postemergence weeds, rated 3-4 weeks after treatment
In short: as §1

[10] = system: SAGPY (Sagittaria pygmaea); experiment: Flooded paddy, postemergence weed control; assay type: in vivo, L.; conditions: postemergence weeds, rated 3-4 weeks after treatment
In short: as §1

[11] = system: MOOVA (Monochoria vaginalis); experiment: Flooded paddy, postemergence weed control; assay type: in vivo, Presl.; conditions: postemergence weeds, rated 3-4 weeks after treatment
In short: as §1

[12] = system: TRZAWR (Wheat, Winter, cv Riband); experiment: Postemergence herbicidal evaluation; assay type: in vivo, Triticum aestivum
In short: as §2

[13] = system: ECHORC (Echinochloa oryzoides); experiment: Flooded paddy, postemergence weed control; assay type: in vivo, Echinochloa oryzoides (Ard.) Fritsch.; conditions: postemergence weeds, rated 3-4 weeks after treatment
In short: as §1

[14] = system: CYPSE (Cyperus serotinus); experiment: Flooded paddy, preemergence weed control; assay type: in vivo, Rottb.; conditions: rated 3-4 weeks after treatment, 0-9 rating scale
In short: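 Seeds or propagules were planted 0.5 cm deep in silt loam and flooded to 1.5–3 cm. Compounds in 50/50 v/v aqueous/acetone were pipetted into the flood water at about 0.0080 to 0.1250 kg/ha. After 3–4 weeks in the greenhouse, effect was rated visually on a 0–9 scale versus untreated control.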

[15] = system: ORYSAT (Rice, Tebonnet); experiment: Flooded paddy, post-transplant and postemergence rice tolerance; assay type: in vivo, Oryza sativa, (L.) Tebonnet; conditions: post-transplant rice, rated 3-4 weeks after treatment
In short: as §1

[16] = system: ABUTH (Abutilon theophrasti); experiment: Preemergence herbicidal evaluation; assay type: in vivo, Medic.; conditions: preemergence, rated 4-5 weeks after treatment

## Cn1c(C(F)(F)F)cc(=O)n(-c2ccc3snc(-c4ccsc4)c3c2)c1=O [Compound 1, 1-methyl-3-[3-(3-thienyl)-1,2-benzisothiazol-5-yl]-6-(trifluoromethyl)uracil]
[1]; 0.0320 kg/ha into flood water
  herbicide rating (0-9) CYPSE: 2.0
[1]; 0.0620 kg/ha into flood water
  herbicide rating (0-9) CYPSE: 4.0
[1]; 0.1250 kg/ha into flood water
  herbicide rating (0-9) CYPSE: 7.0
[2]; Rate 0.0620 kg/ha
  GLXMAW preemergence herbicidal rating: 7.0
[2]; Rate 0.1250 kg/ha
  GLXMAW preemergence herbicidal rating: 9.0
[2]; Rate 0.2500 kg/ha
  GLXMAW preemergence herbicidal rating: 9.0
[3]; rate 0.0320 kg/ha
  Postemergence herbicidal rating, CHEAL: 9.0
[3]; rate 0.0620 kg/ha
  Postemergence herbicidal rating, CHEAL: 9.0
[3]; rate 0.1250 kg/ha
  Postemergence herbicidal rating, CHEAL: 9.0
[4]; rate 0.0320 kg/ha
  Postemergence herbicidal rating, AMBEL: 9.0
[4]; rate 0.0620 kg/ha
  Postemergence herbicidal rating, AMBEL: 9.0
[4]; rate 0.1250 kg/ha
  Postemergence herbicidal rating, AMBEL: 9.0
[5]; rate 0.0320 kg/ha
  Postemergence herbicidal rating, CASOB: 5.5
[5]; rate 0.0620 kg/ha
  Postemergence herbicidal rating, CASOB: 7.5
[5]; rate 0.1250 kg/ha
  Postemergence herbicidal rating, CASOB: 9.0
[6]; Rate 0.0620 kg/ha
  TRZAWR preemergence herbicidal rating: 3.5
[6]; Rate 0.1250 kg/ha
  TRZAWR preemergence herbicidal rating: 4.0
[6]; Rate 0.2500 kg/ha
  TRZAWR preemergence herbicidal rating: 5.0
[7]; Rate 0.0620 kg/ha
  GALAP preemergence herbicidal rating: 9.0
[7]; Rate 0.1250 kg/ha
  GALAP preemergence herbicidal rating: 7.0
[7]; Rate 0.2500 kg/ha
  GALAP preemergence herbicidal rating: 6.5
[8]; Rate 0.0620 kg/ha
  ZEAMX preemergence herbicidal rating: 6.0
[8]; Rate 0.1250 kg/ha
  ZEAMX preemergence herbicidal rating: 6.7
[8]; Rate 0.2500 kg/ha
  ZEAMX preemergence herbicidal rating: 7.0
[9]; 0.0320 kg/ha into flood water
  herbicide rating (0-9) CYPIR: 9.0
[9]; 0.0620 kg/ha into flood water
  herbicide rating (0-9) CYPIR: 9.0
[9]; 0.1250 kg/ha into flood water
  herbicide rating (0-9) CYPIR: 9.0
[10]; 0.0320 kg/ha into flood water
  herbicide rating (0-9) SAGPY: 4.0
[10]; 0.0620 kg/ha into flood water
  herbicide rating (0-9) SAGPY: 7.0
[10]; 0.1250 kg/ha into flood water
  herbicide rating (0-9) SAGPY: 9.0
[11]; 0.0320 kg/ha into flood water
  herbicide rating (0-9) MOOVA: 9.0
[11]; 0.0620 kg/ha into flood water
  herbicide rating (0-9) MOOVA: 9.0
[11]; 0.1250 kg/ha into flood water
  herbicide rating (0-9) MOOVA: 9.0
[12]; rate 0.0320 kg/ha
  Postemergence herbicidal rating, TRZAWR: 3.5
[12]; rate 0.0620 kg/ha
  Postemergence herbicidal rating, TRZAWR: 3.5
[12]; rate 0.1250 kg/ha
  Postemergence herbicidal rating, TRZAWR: 4.3
[13]; 0.0320 kg/ha into flood water
  herbicide rating (0-9) ECHORC: 9.0
[13]; 0.0620 kg/ha into flood water
  herbicide rating (0-9) ECHORC: 9.0
[13]; 0.1250 kg/ha into flood water
  herbicide rating (0-9) ECHORC: 9.0
[14]; rate 0.0320 kg/ha
  herbicidal rating, CYPSE: 3.5
[14]; rate 0.1250 kg/ha
  herbicidal rating, CYPSE: 9.0
[15]; 0.0320 kg/ha into flood water
  herbicide rating (0-9) ORYSAT (rice tolerance): 7.0
[15]; 0.0620 kg/ha into flood water
  herbicide rating (0-9) ORYSAT (rice tolerance): 7.0
[15]; 0.1250 kg/ha into flood water
  herbicide rating (0-9) ORYSAT (rice tolerance): 7.0
[16]; Rate 0.0620 kg/ha
  ABUTH preemergence herbicidal rating: 9.0
[16]; Rate 0.1250 kg/ha
  ABUTH preemergence herbicidal rating: 9.0
[16]; Rate 0.2500 kg/ha
  ABUTH preemergence herbicidal rating: 9.0
